In patent publication US10898522B2, “Compositions and methods for treating graft versus host disease” (Children's Research Institute, Children's National Medical …, priority 2015, dated 2021):
“Also recorded” adds a separate entry of the source.

What was measured:
HIF-1α [1] = test: Intracellular FACS staining of HIF-1α in human T cells from spleen of GvHD mice after echinomycin; type: in vivo
Source text: (§1) FIG. 4. HIF-1α accumulates in a high proportion of human T cells derived from spleen and BM of the recipients of human BMC: Impact of echinomycin. Panel A. Representative FACS plots showing the accumulation of HIF-1α in T cells from the spleen and BM of GvHD mice. Spleen and BM cells were isolated from the spleens and BM of GvHD mice, stained with anti-human CD45, CD4, CD8, and then intracellular stained with anti-human HIF-1α. Panel B. Representative FACS plots showing the accumulation of HIF-1α in all human cells from spleens of GvHD mice. Spleen cells were isolated from the spleens of GvHD mice, stained with anti-human CD45, CD4, CD8, and then intracellular stained with anti-human HIF-1α. FACS analysis was performed to determine the percentage of HIF-1α positive cells in CD45^+CD4^+CD8-, CD45^+CD4-D8^+ and CD45^+CD4-D8-subpopulations. Panel C. Representative FACS plots showing the percentage of HIF-1α positive T cells in spleen of GvHD mice after echinomycin treatment. […]
(§2) Spleens were gently grinded with frosted objective slides and bone marrow was dissociated with syringes to obtain single-cell suspensions and passed through a nylon cell strainer, washed three times with RPMI-1640, labeled with antibodies and analyzed for the presence of different human cell populations. […]

[2] = system: HIF-1α / leukemia stem cells; settings: in vivo; cited from earlier work
HIF-1α [3] = test: Western blot of human HIF-1α in spleen cells from GvHD mice after echinomycin; type: in vivo; settings: echinomycin-treated GvHD mice compared to vehicle controls
Source text: as §1
To test the significance of HIF-1α accumulation, GvHD recipient mice were treated with echinomycin, a selective inhibitor of HIF-1α. […] Further, spleen cells from GvHD mice were isolated and human HIF-1α protein levels from echinomycin-treated mice and vehicle controls were measured by western blot analysis. […]

[4] = system: FoxP3+ human T cells (Treg); test: FACS of FoxP3+ cells within CD4 T cell subset from spleen and BM of GvHD mice; type: in vivo; settings: one dose of 100 μg/kg echinomycin vs vehicle
Source text: as §1, §2

humanized GvHD mice = test: Treatment of humanized GvHD mice (newborn NSG pups transplanted with human BM cells) with echinomycin; type: in vivo, mouse
Protocol: FIG. 5. Sustained treatment of echinomycin protects mice against GvHD and eliminates expanded human leukocytes and inflammation. Panel A. Dosing regimen of echinomycin treatment for humanized GvHD mice. The day that mice were transplanted with human BM cells is defined as day 0. Each arrow represents one echinomycin treatment. The dose for each treatment is 10 μg/kg via intraperitoneal injection. Panel B. Longitudinal analysis of clinical representation of an echinomycin-treated mice. Panel C. Representative FACS plots showing the percentage of human CD45^+ cells in PBL of GvHD mice before and after echinomycin treatment. Data is one representative file from 3 mice and representative of three independent experiments. […] Data are representative of three independent experiments.
FIG. 6. Echinomycin protects mice against lethal GvHD. Panel A. Newborn NSG pups were transplanted with human 5×10^5 BM cells. The mice were treated with the dosing regimen of echinomycin listed in FIG. 5, Panel A. Panel B. Newborn NSG pups were transplanted with human 3×10^5 BM cells. The mice were treated with the dosing regimen of echinomycin listed in FIG. 5, Panel A, except treatment is started at day 17 rather than day 27. […] Data are representative of three independent experiments.
Human bone marrow mononuclear cells were isolated from healthy human adult bone marrow using density gradient separation were purchased from Stemcell Technologies (Vancouver, Canada) and Lonza (Walkersville, Md., USA). Human CD3^+ cells from BM were sorted from human BM cells using BD Influx (BD Biosciences). Cells were thawed, counted and re-suspended in 1×PBS in a concentration of 0.1-0.5×10^6 per 30 μl. 0.1-0.5×10^6 cells were transplanted via intrahepatic injection into irradiated (1.30 Gy) newborn NSG pups. Human CD45^+ cells in PBMC of recipients were detected by FACS analysis at day 17 to 20 after transplantation.
Peripheral blood was collected by sub-mandibular bleeding at different times after transplantation of human BM cells. Fluorochrome-labeled antibodies were directly added into whole blood. After 30 min of staining, the unbound antibodies were washed away and the red blood cells were lysed with BD FACS™. The stained cells were analyzed with BD FACS Canto II flow cytometry.
Immunohistochemistry was performed on tissue sections from skin, liver, lung, spleen, and kidney of humanized NSG mice. Sections were fixed with 4% paraformaldehyde and dehydrated with graded alcohol. After treatment with heated citrate buffer for antigen retrieval, sections were blocked for endogenous peroxidase activity. Sections were then incubated in 10% goat serum followed by primary antibodies at 4° C. overnight. Fixed samples were stained with the following antibodies, anti-human CD45 (MEM-28) and CD3 (ab828, Abcam PLC, Cambridge, Mass.), for detection of infiltrated human cells. After incubation for 30 minutes with secondary antibody, the specimens were visualized by DAB treatment. Sections were lightly counterstained with hematoxylin to enable visualization of nuclei.
Newborn NSG pups received 0.3-0.5×10^6 human BM cells intrahepatically. Beginning on day 17 or 27, the recipients received 5 intraperitoneal injections of echinomycin, daily at 10 μg/kg. Following 2 days of rest, another 5 intraperitoneal injections of echinomycin were administered at the same dose, once per day. The second round of treatment was performed following 5 days of rest from the prior round of treatment, using the same dose once every other day for 10 total treatments.
To better understand the importance of HIF-1α in the therapy of GvHD, the effect of HIF-1α inhibition was examined. Newborn pups were transplanted with 0.5×10^6 human BM cells via intra-hepatic injection. Twenty-seven days after transplantation, mice were treated with 10 μg/kg of echinomycin for a total of 20 treatments. […]

For `CS[C@H]1SC[C@H]2C(=O)N(C)[C@@H](C(C)C)C(=O)OC[C@@H](NC(=O)c3cnc4ccccc4n3)C(=O)N[C@@H](C)C(=O)N(C)[C@@H]1C(=O)N(C)[C@@H](C(C)C)C(=O)OC[C@@H](NC(=O)c1cnc3ccccc3n1)C(=O)N[C@@H](C)C(=O)N2C` [echinomycin], the “HIF-1α protein in HIF-1α+ T cells of spleen (FACS)” value (HIF-1α [1]; single dose of 100 μg/kg echinomycin, overnight) is given as “lost HIF-1α protein overnight”, the T cell frequencies (HIF-1α [1]; single dose of echinomycin) is given as “largely unaffected” and the “adverse reactions towards hematopoietic stem cells” value [2] is given as “without adverse reactions”. For the same compound, the “efficacy in experimental leukemia and lymphoma” value [2] was “effective in treating experimental leukemia and lymphoma”, the “HIF-1α protein levels in spleen cells (western blot)” value (HIF-1α [3]) was “significantly decreased” and the “proportion of Tregs (FoxP3+ cells within CD4 T cell subset)” value [4] was “no apparent difference”. For the same compound, the “proportion of Tregs (FoxP3+ cells within CD4 T cell subset)” value ([4]; listed as Echinomycin) was “does not expand human Treg”, the median survival (humanized GvHD mice; 0.3×10^6 human BM cells, treatment started day 17, 10 μg/kg i.p.) was 119 days and the “survival during the treatment period” value (humanized GvHD mice; 0.5×10^6 BM cells, 10 μg/kg, 20 treatments from day 27, all vehicle treated mice died) was “survived”. For the same compound, the “reduction of number of human leukocytes in the peripheral blood” value (humanized GvHD mice; 0.5×10^6 human BM cells, 10 μg/kg i.p. from day 27, over 5 weeks) was “more than 10 fold”, the median survival (humanized GvHD mice; 0.5×10^6 human BM cells, treatment started day 27, 10 μg/kg i.p.) was 99 days and the “life span (Kaplan-Meier survival curve) compared with vehicle” value (humanized GvHD mice; 3×10^5 or 5×10^5 BM cells, regimen of FIG. 5 Panel A) was “significantly prolonged life span”. For the same compound, the “mice protected against lethal GvHD” value (humanized GvHD mice; continuous treatment of echinomycin) was ~100%, the “clinical symptoms (skin, hair)” value (humanized GvHD mice; one treated mouse, after two weeks of treatments, 10 μg/kg from day 27) was “regained smooth skin with visible regrowth of hair” and the “human CD3+ T cells in organs (IHC)” value (humanized GvHD mice; skin, intestine, liver and lung, 10 μg/kg i.p. from day 27, day 75) was “elimination of T cells from all major organs; also recorded: significant reduction of CD3^+ cells”. The “life span longer than that of mice treated starting at Day 27” value (humanized GvHD mice; treatment started day 17 vs day 27) was 20 days.
